Source: patent publication US20260022143A1, “Cyclic Peptide Inhibitors of IL-23” (JANSSEN PHARMACEUTICA NV, priority 2022, published 2026)
Positions of bridges follow the written chain, without caps; N, C: chain ends. Non-standard residues stand in square brackets, D forms with d. Residues, ends and D or L forms follow the SMILES beside them. *: point of attachment. Me3N+(CH2)2O(CH2)2O(CH2)2CO = C[N+](C)(C)CCOCCOCCC(=O)*; Trp(7-Me) = Cc1cccc2c(C[C@H](N)C(=O)O)c[nH]c12; 2Nal = N[C@@H](Cc1ccc2ccccc2c1)C(=O)O; 3Pal = N[C@@H](Cc1cccnc1)C(=O)O; Lys(Me) = CNCCCC[C@H](N)C(=O)O; Pen = CC(C)(S)[C@H](N)C(=O)O; Thp = NC1(C(=O)O)CCOCC1; X3 = C[N+](C)(C)CCCCC*; Sar = CNCC(=O)O

Assays:
[1] = Exposed Polar Surface Area (EPSA); type: physicochemical; settings: SFC on Chirex 3014 column; sample 1 mM DMSO stock; read-out: EPSA
Summary of the method: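 EPSA, in Å^2, is read from SFC retention time through a linear relationship established with eight calibration standards. Separation uses a Chirex 3014 stationary phase, 35 °C, 14 MPa back pressure, and a 5–60% methanol/ammonium formate modifier gradient in CO2.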

IL-23R = target: T1, IL-23R (Homo sapiens, UniProt Q5VWK5); test: IL23R Reporter Assay; type: cell-based; settings: HEK293 cells containing IL-23R, IL-12RP1 and STAT-inducible firefly luciferase reporter; 10 ng/mL IL-23 (EC90); 5 h at 37° C.; read-out: IL23R Reporter Assay
T1 construct: host or cells: HEK293
T1 sequence (Q5VWK5 24-629): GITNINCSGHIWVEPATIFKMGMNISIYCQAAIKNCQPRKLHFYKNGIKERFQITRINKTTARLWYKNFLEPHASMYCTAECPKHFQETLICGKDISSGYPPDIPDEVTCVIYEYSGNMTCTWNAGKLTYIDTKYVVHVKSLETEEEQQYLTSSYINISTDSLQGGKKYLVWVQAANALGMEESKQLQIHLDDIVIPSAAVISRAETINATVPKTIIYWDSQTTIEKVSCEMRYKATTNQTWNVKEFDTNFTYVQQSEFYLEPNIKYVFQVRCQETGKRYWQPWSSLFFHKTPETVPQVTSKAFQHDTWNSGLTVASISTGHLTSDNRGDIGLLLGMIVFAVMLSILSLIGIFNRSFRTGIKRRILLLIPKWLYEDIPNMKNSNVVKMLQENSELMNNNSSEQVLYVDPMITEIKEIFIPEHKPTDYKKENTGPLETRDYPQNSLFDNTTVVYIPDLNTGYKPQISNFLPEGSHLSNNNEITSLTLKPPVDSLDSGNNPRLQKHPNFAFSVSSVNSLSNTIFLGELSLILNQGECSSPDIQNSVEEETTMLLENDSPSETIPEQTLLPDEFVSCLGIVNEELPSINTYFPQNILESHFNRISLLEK

Row | EPSA [1] | IC50 (IL-23R) | Compound
1 | 161 A^2 | 6 nM | CC(=O)N(C)CCCC[C@@H]1NC(=O)[C@H](Cc2c[nH]c3c(C)cccc23)NC(=O)[C@H]([C@@H](C)O)NC(=O)[C@H](C)NC(=O)[C@@H](NC(=O)CCOCCOCC[N+](C)(C)C)C(C)(C)SSC(C)(C)[C@@H](C(=O)N[C@@H](Cc2ccc(OCCCCC[N+](C)(C)C)cc2)C(=O)N[C@@H](Cc2ccc3ccccc3c2)C(=O)NC2(C(=O)N[C@@H](CCCCN(C)C(C)=O)C(=O)N[C@@H](CC(N)=O)C(=O)N[C@@H](Cc3cccnc3)C(=O)N(C)CC(=O)N(C)C)CCOCC2)NC1=O [compound 496, cPEG3aCO-Pen(3)-a-T-7MeW-K(NMeAc)-Pen(3)-TMAPF-2Nal-THP-K(NMeAc)-N-3Pya-Sar-CON(Me)2] ({Me3N+(CH2)2O(CH2)2O(CH2)2CO}-[Pen]AT[Trp(7-Me)][Lys(Me)](Ac)[Pen]Y(X3)[2Nal][Thp][Lys(Me)](Ac)N[3Pal][Sar]-NMe2; disulfide 1-6)
2 | 162 A^2 | 80 nM | CC(=O)N(C)CCCC[C@@H]1NC(=O)[C@H](Cc2c[nH]c3c(C)cccc23)NC(=O)[C@H]([C@@H](C)O)NC(=O)[C@H](CC(=O)N(C)C)NC(=O)[C@@H](NC(=O)CCOCCOCC[N+](C)(C)C)C(C)(C)SSC(C)(C)[C@@H](C(=O)N[C@@H](Cc2ccc(OCCCCC[N+](C)(C)C)cc2)C(=O)N[C@@H](Cc2c[nH]c3ccccc23)C(=O)NC2(C(=O)N[C@@H](CCCCN(C)C(C)=O)C(=O)N[C@@H](CC(N)=O)C(=O)N[C@@H](Cc3cccnc3)C(=O)N(C)CC(=O)N(C)C)CCOCC2)NC1=O [compound 497, cPEG3aCO-Pen(3)-N(N(Me)2)-T-7MeW-K(NMeAc)-Pen(3)-TMApF-W-THP-K(NMeAc)-N-3Pya-Sar-CON(Me)2] ({Me3N+(CH2)2O(CH2)2O(CH2)2CO}-[Pen]D(NMe2)T[Trp(7-Me)][Lys(Me)](Ac)[Pen]Y(X3)W[Thp][Lys(Me)](Ac)N[3Pal][Sar]-NMe2; disulfide 1-6)
3 | 162 A^2 | 27 nM | CC(=O)N(C)CCCC[C@@H]1NC(=O)[C@H](Cc2c[nH]c3c(C)cccc23)NC(=O)[C@H]([C@@H](C)O)NC(=O)[C@H](CC(=O)N(C)C)NC(=O)[C@@H](NC(=O)CCOCCOCC[N+](C)(C)C)C(C)(C)SSC(C)(C)[C@@H](C(=O)N[C@@H](Cc2ccc(OCCCCC[N+](C)(C)C)cc2)C(=O)N[C@@H](Cc2ccccc2)C(=O)NC2(C(=O)N[C@@H](CCCCN(C)C(C)=O)C(=O)N[C@@H](CC(N)=O)C(=O)N[C@@H](Cc3cccnc3)C(=O)N(C)CC(=O)N(C)C)CCOCC2)NC1=O [compound 498, cPEG3aCO-Pen(3)-N(N(Me)2)-T-7MeW-K(NMeAc)-Pen(3)-TMApF-F-THP-K(NMeAc)-N-3Pya-Sar-CON(Me)2] ({Me3N+(CH2)2O(CH2)2O(CH2)2CO}-[Pen]D(NMe2)T[Trp(7-Me)][Lys(Me)](Ac)[Pen]Y(X3)F[Thp][Lys(Me)](Ac)N[3Pal][Sar]-NMe2; disulfide 1-6)
4 | 133 A^2 | > 1630 nM | CC(=O)N(C)CCCC[C@@H]1NC(=O)[C@H](Cc2c[nH]c3c(C)cccc23)NC(=O)[C@H]([C@@H](C)O)NC(=O)[C@H](CC(=O)N(C)C)NC(=O)[C@@H](NC(=O)CCOCCOCC[N+](C)(C)C)C(C)(C)SSC(C)(C)[C@@H](C(=O)N[C@@H](Cc2ccc(OCCCCC[N+](C)(C)C)cc2)C(=O)N[C@@H](CC(C)C)C(=O)NC2(C(=O)N[C@@H](CCCCN(C)C(C)=O)C(=O)N[C@@H](CC(N)=O)C(=O)N[C@@H](Cc3cccnc3)C(=O)N(C)CC(=O)N(C)C)CCOCC2)NC1=O [compound 499, cPEG3aCO-Pen(3)-N(N(Me)2)-T-7MeW-K(NMeAc)-Pen(3)-TMApF-L-THP-K(NMeAc)-N-3Pya-Sar-CON(Me)2] ({Me3N+(CH2)2O(CH2)2O(CH2)2CO}-[Pen]D(NMe2)T[Trp(7-Me)][Lys(Me)](Ac)[Pen]Y(X3)L[Thp][Lys(Me)](Ac)N[3Pal][Sar]-NMe2; disulfide 1-6)
